ChEMBL document CHEMBL5512637, “Development of Membrane-Targeting Fluorescent 2-Phenyl-1H-phenanthro[9,10-d]imidazole-Antimicrobial Peptide Mimic Conjugates against Methicillin-Resistant Staphylococcus aureus” (J Med Chem, 2024)
In brackets after ≈: the same amount, converted by molar mass.

Tests used:
Staphylococcus aureus [1] = test: Antibacterial activity against methicillin-resistant Staphylococcus aureus clinical isolate M-3 incubated for 16 to 18 hrs CLSI based by microbroth dilution assay; type: functional; settings: time 16-18 hrs
Staphylococcus aureus [2] = test: Antibacterial activity against methicillin-resistant Staphylococcus aureus clinical isolate M-5 incubated for 16 to 18 hrs CLSI based by microbroth dilution assay; type: functional; settings: time 16-18 hrs
Staphylococcus aureus [3] = test: Antibacterial activity against methicillin-resistant Staphylococcus aureus clinical isolate M-4 incubated for 16 to 18 hrs CLSI based by microbroth dilution assay; type: functional; settings: time 16-18 hrs
Staphylococcus aureus [4] = test: Antibacterial activity against methicillin-resistant Staphylococcus aureus clinical isolate M-10 incubated for 16 to 18 hrs CLSI based by microbroth dilution assay; type: functional; settings: time 16-18 hrs
Escherichia coli = test: Antibacterial activity against Escherichia coli ATCC 25922 incubated for 16 to 18 hrs CLSI based by microbroth dilution assay; type: functional; settings: time 16-18 hrs
Staphylococcus aureus [5] = test: Antibacterial activity against methicillin-resistant Staphylococcus aureus clinical isolate M-7 incubated for 16 to 18 hrs CLSI based by microbroth dilution assay; type: functional; settings: time 16-18 hrs
Staphylococcus aureus [6] = test: Antibacterial activity against methicillin-resistant Staphylococcus aureus clinical isolate M-8 incubated for 16 to 18 hrs CLSI based by microbroth dilution assay; type: functional; settings: time 16-18 hrs
Staphylococcus aureus [7] = test: Antibacterial activity against methicillin-resistant Staphylococcus aureus clinical isolate M-9 incubated for 16 to 18 hrs CLSI based by microbroth dilution assay; type: functional; settings: time 16-18 hrs
Staphylococcus aureus [8] = test: Antibacterial activity against methicillin-resistant Staphylococcus aureus clinical isolate M-6 incubated for 16 to 18 hrs CLSI based by microbroth dilution assay; type: functional; settings: time 16-18 hrs
Staphylococcus aureus [9] = test: Antibacterial activity against Staphylococcus aureus ATCC 29213 incubated for 16 to 18 hrs CLSI based by microbroth dilution assay; type: functional; settings: time 16-18 hrs
[10] = Selectivity index, ratio of HC50 for sheep erythrocytes to MIC for Staphylococcus aureus ATCC 29213; type: toxicity; settings: read-out: Selectivity Index
Staphylococcus aureus [11] = test: Antibacterial activity against methicillin-resistant Staphylococcus aureus clinical isolate M-1 incubated for 16 to 18 hrs CLSI based by microbroth dilution assay; type: functional; settings: time 16-18 hrs
[12] = Hemolytic activity in sheep erythrocytes incubated for 1 hr by absorbance based assay; type: toxicity, cell-based, Ovis aries, Erythrocyte
Staphylococcus aureus [13] = test: Antibacterial activity against methicillin-resistant Staphylococcus aureus clinical isolate M-2 incubated for 16 to 18 hrs CLSI based by microbroth dilution assay; type: functional; settings: time 16-18 hrs

CCCCN(CCCC)C(=O)C[N+](C)(C)CCCn1c(-c2ccc(N(C)C)cc2)nc2c3ccccc3c3ccccc3c21.[Br-]
MIC (Staphylococcus aureus [1]): 4 µg/mL
MIC (Staphylococcus aureus [2]): 4 µg/mL
MIC (Staphylococcus aureus [3]): 4 µg/mL
MIC (Staphylococcus aureus [4]): 4 µg/mL
MIC (Escherichia coli): 64 µg/mL
MIC (Staphylococcus aureus [5]): 4 µg/mL
MIC (Staphylococcus aureus [6]): 4 µg/mL
MIC (Staphylococcus aureus [7]): 4 µg/mL
MIC (Staphylococcus aureus [8]): 4 µg/mL
MIC (Staphylococcus aureus [9]): 8 µg/mL
selectivity ratio [10]: > 80
MIC (Staphylococcus aureus [11]): 4 µg/mL
HC50 at 1 h [12]: > 640 µg/mL
MIC (Staphylococcus aureus [13]): 4 µg/mL

O=C1C(=O)c2ccccc2-c2ccccc21 [9,10-PHENANTHRENEQUINONE]
MIC (Staphylococcus aureus [1]): 4 µg/mL (≈ 19.2 µM)
MIC (Staphylococcus aureus [2]): 4 µg/mL (≈ 19.2 µM)
MIC (Staphylococcus aureus [3]): 4 µg/mL (≈ 19.2 µM)
MIC (Staphylococcus aureus [4]): 2 µg/mL (≈ 9.61 µM)
MIC (Escherichia coli): > 64 µg/mL
MIC (Staphylococcus aureus [5]): 4 µg/mL (≈ 19.2 µM)
MIC (Staphylococcus aureus [6]): 2 µg/mL (≈ 9.61 µM)
MIC (Staphylococcus aureus [7]): 8 µg/mL (≈ 38.4 µM)
MIC (Staphylococcus aureus [8]): 4 µg/mL (≈ 19.2 µM)
MIC (Staphylococcus aureus [9]): 4 µg/mL (≈ 19.2 µM)
selectivity ratio [10]: > 80
MIC (Staphylococcus aureus [11]): 2 µg/mL (≈ 9.61 µM)
HC50 at 1 h [12]: > 320 µg/mL
MIC (Staphylococcus aureus [13]): 4 µg/mL (≈ 19.2 µM)

CCN(CC)C(=O)C[N+](C)(C)CCCCn1c(-c2ccc(N(C)C)cc2)nc2c3ccccc3c3ccccc3c21.[Br-]
MIC (Staphylococcus aureus [1]): 16 µg/mL
MIC (Staphylococcus aureus [2]): 16 µg/mL
MIC (Staphylococcus aureus [3]): 16 µg/mL
MIC (Staphylococcus aureus [4]): 16 µg/mL
MIC (Escherichia coli): > 128 µg/mL
MIC (Staphylococcus aureus [5]): 16 µg/mL
MIC (Staphylococcus aureus [6]): 32 µg/mL
MIC (Staphylococcus aureus [7]): 16 µg/mL
MIC (Staphylococcus aureus [8]): 16 µg/mL
MIC (Staphylococcus aureus [9]): 16 µg/mL
selectivity ratio [10]: > 640
MIC (Staphylococcus aureus [11]): 16 µg/mL
HC50 at 1 h [12]: 16 µg/mL
MIC (Staphylococcus aureus [13]): 16 µg/mL

CN(C)c1ccc(-c2nc3c4ccccc4c4ccccc4c3n2CCC[N+](C)(C)CC(=O)N2CCSCC2)cc1.[Br-]
MIC (Staphylococcus aureus [1]): 64 µg/mL
MIC (Staphylococcus aureus [2]): 64 µg/mL
MIC (Staphylococcus aureus [3]): 64 µg/mL
MIC (Staphylococcus aureus [4]): 64 µg/mL
MIC (Escherichia coli): > 128 µg/mL
MIC (Staphylococcus aureus [5]): 32 µg/mL
MIC (Staphylococcus aureus [6]): 128 µg/mL
MIC (Staphylococcus aureus [7]): 64 µg/mL
MIC (Staphylococcus aureus [8]): 64 µg/mL
MIC (Staphylococcus aureus [9]): 64 µg/mL
selectivity ratio [10]: 5.6
MIC (Staphylococcus aureus [11]): 64 µg/mL
HC50 at 1 h [12]: 357 µg/mL
MIC (Staphylococcus aureus [13]): 64 µg/mL

CCNC(=O)C[N+](C)(C)CCCCn1c(-c2ccc(N(C)C)cc2)nc2c3ccccc3c3ccccc3c21.[Br-]
MIC (Staphylococcus aureus [1]): 16 µg/mL
MIC (Staphylococcus aureus [2]): 16 µg/mL
MIC (Staphylococcus aureus [3]): 16 µg/mL
MIC (Staphylococcus aureus [4]): 16 µg/mL
MIC (Escherichia coli): > 128 µg/mL
MIC (Staphylococcus aureus [5]): 16 µg/mL
MIC (Staphylococcus aureus [6]): 32 µg/mL
MIC (Staphylococcus aureus [7]): 16 µg/mL
MIC (Staphylococcus aureus [8]): 16 µg/mL
MIC (Staphylococcus aureus [9]): 16 µg/mL
selectivity ratio [10]: > 40
MIC (Staphylococcus aureus [11]): 16 µg/mL
HC50 at 1 h [12]: > 640 µg/mL
MIC (Staphylococcus aureus [13]): 16 µg/mL

CC(C)CN(CC(C)C)C(=O)C[N+](C)(C)CCCCCn1c(-c2ccc(N(C)C)cc2)nc2c3ccccc3c3ccccc3c21.[Br-]
MIC (Staphylococcus aureus [1]): 1 µg/mL
MIC (Staphylococcus aureus [2]): 2 µg/mL
MIC (Staphylococcus aureus [3]): 1 µg/mL
MIC (Staphylococcus aureus [4]): 2 µg/mL
MIC (Escherichia coli): > 128 µg/mL
MIC (Staphylococcus aureus [5]): 1 µg/mL
MIC (Staphylococcus aureus [6]): 1 µg/mL
MIC (Staphylococcus aureus [7]): 1 µg/mL
MIC (Staphylococcus aureus [8]): 1 µg/mL
MIC (Staphylococcus aureus [9]): 1 µg/mL
selectivity ratio [10]: 247
MIC (Staphylococcus aureus [11]): 1 µg/mL
HC50 at 1 h [12]: 247 µg/mL
MIC (Staphylococcus aureus [13]): 1 µg/mL

CCNC(=O)C[N+](C)(C)CCCn1c(-c2ccc(N(C)C)cc2)nc2c3ccccc3c3ccccc3c21.[Br-]
MIC (Staphylococcus aureus [1]): 64 µg/mL
MIC (Staphylococcus aureus [2]): 64 µg/mL
MIC (Staphylococcus aureus [3]): 32 µg/mL
MIC (Staphylococcus aureus [4]): 64 µg/mL
MIC (Escherichia coli): > 128 µg/mL
MIC (Staphylococcus aureus [5]): 32 µg/mL
MIC (Staphylococcus aureus [6]): 64 µg/mL
MIC (Staphylococcus aureus [7]): 64 µg/mL
MIC (Staphylococcus aureus [8]): 64 µg/mL
MIC (Staphylococcus aureus [9]): 64 µg/mL
selectivity ratio [10]: > 10
MIC (Staphylococcus aureus [11]): 64 µg/mL
HC50 at 1 h [12]: > 640 µg/mL
MIC (Staphylococcus aureus [13]): 64 µg/mL

CCCN(CCC)C(=O)C[N+](C)(C)CCCCCn1c(-c2ccc(N(C)C)cc2)nc2c3ccccc3c3ccccc3c21.[Br-]
MIC (Staphylococcus aureus [1]): 2 µg/mL
MIC (Staphylococcus aureus [2]): 8 µg/mL
MIC (Staphylococcus aureus [3]): 2 µg/mL
MIC (Staphylococcus aureus [4]): 4 µg/mL
MIC (Escherichia coli): 128 µg/mL
MIC (Staphylococcus aureus [5]): 2 µg/mL
MIC (Staphylococcus aureus [6]): 2 µg/mL
MIC (Staphylococcus aureus [7]): 2 µg/mL
MIC (Staphylococcus aureus [8]): 2 µg/mL
MIC (Staphylococcus aureus [9]): 2 µg/mL
selectivity ratio [10]: 49.7
MIC (Staphylococcus aureus [11]): 4 µg/mL
HC50 at 1 h [12]: 99.4 µg/mL
MIC (Staphylococcus aureus [13]): 4 µg/mL

CCCN(CCC)C(=O)C[N+](C)(C)CCCn1c(-c2ccc(N(C)C)cc2)nc2c3ccccc3c3ccccc3c21.[Br-]
MIC (Staphylococcus aureus [1]): 32 µg/mL
MIC (Staphylococcus aureus [2]): 32 µg/mL
MIC (Staphylococcus aureus [3]): 32 µg/mL
MIC (Staphylococcus aureus [4]): 32 µg/mL
MIC (Escherichia coli): > 128 µg/mL
MIC (Staphylococcus aureus [5]): 16 µg/mL
MIC (Staphylococcus aureus [6]): 64 µg/mL
MIC (Staphylococcus aureus [7]): 32 µg/mL
MIC (Staphylococcus aureus [8]): 64 µg/mL
MIC (Staphylococcus aureus [9]): 32 µg/mL
selectivity ratio [10]: > 20
MIC (Staphylococcus aureus [11]): 32 µg/mL
HC50 at 1 h [12]: > 640 µg/mL
MIC (Staphylococcus aureus [13]): 32 µg/mL

C[C@@H](O)[C@H]1C(=O)N2C(C(=O)O)=C(S[C@@H]3CN[C@H](C(=O)N(C)C)C3)[C@H](C)[C@H]12 [MEROPENEM]
MIC (Escherichia coli): 0.063 µg/mL (≈ 0.164 µM)
